Consider ten molecules from publication PMC9230201, “Sustained Consumption of a Decaffeinated Green Coffee Nutraceutical Has Limited Effects on Phenolic Metabolism and Bioavailability in Overweight/Obese Subjects” (Nutrients, 2022).

The nature of the data set: Urinary excretion of phenolic metabolites after intake of the GCPE nutraceutical. Conditions: for Cumulative urinary excretion, Total 0–24 h / Urinary excretion: urine; for Cumulative urinary excretion, Total 0–24 h: mean ± SEM, n = 9.

Each structure is given as a SMILES string.

`O=C(/C=C/c1ccc(O)c(O)c1)O[C@@H]1C[C@](O)(C(=O)O)C[C@@H](O)[C@H]1O` [3-Caffeoylquinic acid]: the “Cumulative urinary excretion, Total 0–24 h” value (“Cumulative urinary excretion” for short) by setting is: (week 0) 0.21 ± 0.05 µmol; (week 8) 0.18 ± 0.03 µmol. Further, the Amount excreted in urine, 0- 3 h is, setting by setting: (week 0, interval 0–3 h) 0.11 ± 0.02 µmol; (week 8, interval 0–3 h) 0.1 ± 0.02 µmol. Also, the Amount excreted in urine, 3-6 h reads like this: (week 0, interval 3–6 h) 0.08 ± 0.03 µmol; (week 8, interval 3–6 h) 0.045 ± 0.008 µmol. Moreover, the Amount excreted in urine, 6-9 h (week 0, interval 6–9 h) turned out to be 0.022 ± 0.009 µmol and the Amount excreted in urine, 6-9 h (week 8, interval 6–9 h) worked out at 0.028 ± 0.007 µmol. Further, the Amount excreted in urine, 9-11 h reads like this: (week 0, interval 9–11 h) 0.003 ± 0.002 µmol; (week 8, interval 9–11 h) 0.008 ± 0.005 µmol.
With `O=C(CCc1ccc(O)c(O)c1)OC1CC(O)(C(=O)O)CC(O)C1O` (stereo not shown) [3-Dihydrocaffeoylquinic acid], the Urinary excretion (week 0) is listed as 0.35 µmol/24 h and the Urinary excretion (week 8) worked out at 0.27 µmol/24 h. Moreover, the “Cumulative urinary excretion” value was 0.35 ± 0.07 µmol (week 0) and 0.27 ± 0.08 µmol (week 8). For the same molecule, the Amount excreted in urine, 0- 3 h is, setting by setting: (week 0, interval 0–3 h) 0.06 ± 0.02 µmol; (week 8, interval 0–3 h) 0.025 ± 0.007 µmol. Also, the Amount excreted in urine, 3-6 h (week 0, interval 3–6 h) is 0.033 ± 0.005 µmol and the Amount excreted in urine, 3-6 h (week 8, interval 3–6 h) is 0.019 ± 0.005 µmol. Besides, the Amount excreted in urine, 6-9 h runs as follows: (week 0, interval 6–9 h) 0.05 ± 0.02 µmol; (week 8, interval 6–9 h) 0.04 ± 0.01 µmol. Also, the Amount excreted in urine, 9-11 h (week 0, interval 9–11 h) turned out to be 0.04 ± 0.01 µmol and the Amount excreted in urine, 9-11 h (week 8, interval 9–11 h) came out at 0.03 ± 0.01 µmol. The Amount excreted in urine, 11-24 h (week 0, interval 11–24 h) is 0.17 ± 0.04 µmol and the Amount excreted in urine, 11-24 h (week 8, interval 11–24 h) came to 0.15 ± 0.06 µmol.
With `COc1cc(CCC(=O)OC2CC(O)(C(=O)O)CC(O)C2O)ccc1O` (stereo not shown) [3-Dihydroferuloylquinic acid], the “Cumulative urinary excretion” value reads like this: (week 0) 0.3 ± 0.1 µmol; (week 8) 0.5 ± 0.07 µmol. In addition, the Amount excreted in urine, 0- 3 h by setting is: (week 0, interval 0–3 h) 0.05 ± 0.01 µmol; (week 8, interval 0–3 h) 0.11 ± 0.02 µmol. The Amount excreted in urine, 3-6 h (week 0, interval 3–6 h) is 0.034 ± 0.006 µmol and the Amount excreted in urine, 3-6 h (week 8, interval 3–6 h) amounted to 0.062 ± 0.008 µmol. Also, the Amount excreted in urine, 6-9 h is, setting by setting: (week 0, interval 6–9 h) 0.029 ± 0.006 µmol; (week 8, interval 6–9 h) 0.08 ± 0.01 µmol. Further, the Amount excreted in urine, 9-11 h is, setting by setting: (week 0, interval 9–11 h) 0.019 ± 0.005 µmol; (week 8, interval 9–11 h) 0.08 ± 0.02 µmol. The Amount excreted in urine, 11-24 h is, setting by setting: (week 0, interval 11–24 h) 0.16 ± 0.09 µmol; (week 8, interval 11–24 h) 0.14 ± 0.02 µmol.
With `O=C(/C=C/c1ccc(O)c(O)c1)OC1[C@H](O)CC(O)(C(=O)O)C[C@H]1O` (stereo partly shown) [4-Caffeoylquinic acid], the “Cumulative urinary excretion” value by setting is: (week 0) 0.13 ± 0.07 µmol; (week 8) 0.15 ± 0.07 µmol. The Amount excreted in urine, 6-9 h reads like this: (week 0, interval 6–9 h) 0.03 ± 0.02 µmol; (week 8, interval 6–9 h) 0.06 ± 0.03 µmol. Further, the Amount excreted in urine, 9-11 h is, setting by setting: (week 0, interval 9–11 h) 0.05 ± 0.04 µmol; (week 8, interval 9–11 h) 0.05 ± 0.03 µmol. For the same molecule, the Amount excreted in urine, 11-24 h runs as follows: (week 0, interval 11–24 h) 0.05 ± 0.02 µmol; (week 8, interval 11–24 h) 0.02 ± 0.01 µmol. Under “week 8, interval 0–3 h”, the Amount excreted in urine, 0- 3 h turned out to be 0.01 ± 0.01 µmol. Also, the Amount excreted in urine, 3-6 h (week 8, interval 3–6 h) was determined as 0.008 ± 0.005 µmol.
Turning to `O=C(CCc1ccc(O)c(O)c1)OC1C(O)CC(O)(C(=O)O)CC1O` (stereo not shown) [4-Dihydrocaffeoylquinic acid], the “Cumulative urinary excretion” value by setting is: (week 0) 0.06 ± 0.02 µmol; (week 8) 0.04 ± 0.02 µmol. Moreover, the Amount excreted in urine, 0- 3 h (week 0, interval 0–3 h) is 0.011 ± 0.004 µmol and the Amount excreted in urine, 0- 3 h (week 8, interval 0–3 h) was 0.008 ± 0.004 µmol. Moreover, the Amount excreted in urine, 3-6 h reads like this: (week 0, interval 3–6 h) 0.005 ± 0.002 µmol; (week 8, interval 3–6 h) 0.003 ± 0.002 µmol. Further, the Amount excreted in urine, 6-9 h is, setting by setting: (week 0, interval 6–9 h) 0.005 ± 0.002 µmol; (week 8, interval 6–9 h) 0.004 ± 0.002 µmol. The Amount excreted in urine, 9-11 h (week 0, interval 9–11 h) was determined as 0.006 ± 0.002 µmol and the Amount excreted in urine, 9-11 h (week 8, interval 9–11 h) came to 0.004 ± 0.003 µmol. For the same molecule, the Amount excreted in urine, 11-24 h is 0.036 ± 0.008 µmol (week 0, interval 11–24 h) and 0.02 ± 0.01 µmol (week 8, interval 11–24 h).
`COc1cc(CCC(=O)OC2C(O)CC(O)(C(=O)O)CC2O)ccc1O` (stereo not shown) [4-Dihydroferuloylquinic acid]: the “Cumulative urinary excretion” value reads like this: (week 0) 0.06 ± 0.02 µmol; (week 8) 0.05 ± 0.02 µmol. The Amount excreted in urine, 0- 3 h (week 0, interval 0–3 h) was 0.011 ± 0.004 µmol and the Amount excreted in urine, 0- 3 h (week 8, interval 0–3 h) came out at 0.015 ± 0.008 µmol. The Amount excreted in urine, 3-6 h (week 0, interval 3–6 h) was determined as 0.008 ± 0.003 µmol. Further, the Amount excreted in urine, 6-9 h runs as follows: (week 0, interval 6–9 h) 0.013 ± 0.005 µmol; (week 8, interval 6–9 h) 0.011 ± 0.007 µmol. Also, the Amount excreted in urine, 9-11 h amounted to 0.005 ± 0.003 µmol (week 0, interval 9–11 h) and 0.003 ± 0.002 µmol (week 8, interval 9–11 h). The Amount excreted in urine, 11-24 h reads like this: (week 0, interval 11–24 h) 0.019 ± 0.009 µmol; (week 8, interval 11–24 h) 0.009 ± 0.005 µmol.
With `O=C(/C=C/c1ccc(O)c(O)c1)O[C@@H]1C[C@@](O)(C(=O)O)C[C@@H](O)[C@@H]1O` [5-Caffeoylquinic acid], the “Cumulative urinary excretion” value (week 0) stood at 0.33 ± 0.06 µmol and the “Cumulative urinary excretion” value (week 8) was 0.33 ± 0.04 µmol. In addition, the Amount excreted in urine, 0- 3 h (week 0, interval 0–3 h) was 0.18 ± 0.04 µmol and the Amount excreted in urine, 0- 3 h (week 8, interval 0–3 h) worked out at 0.18 ± 0.04 µmol. Also, the Amount excreted in urine, 3-6 h was found to be 0.12 ± 0.04 µmol (week 0, interval 3–6 h) and 0.08 ± 0.01 µmol (week 8, interval 3–6 h). In addition, the Amount excreted in urine, 6-9 h came out at 0.03 ± 0.01 µmol (week 0, interval 6–9 h) and 0.033 ± 0.008 µmol (week 8, interval 6–9 h). The Amount excreted in urine, 9-11 h stood at 0.004 ± 0.002 µmol (week 0, interval 9–11 h) and 0.009 ± 0.007 µmol (week 8, interval 9–11 h). The Amount excreted in urine, 11-24 h (week 8, interval 11–24 h) was 0.006 ± 0.006 µmol.
On to `COc1cc(CCC(=O)OC2CC(O)(C(=O)O)CC(O)C2O)ccc1O` (stereo not shown) [5-Dihydroferuloylquinic acid], for which the “Cumulative urinary excretion” value was determined as 0.3 ± 0.1 µmol (week 0) and 0.18 ± 0.07 µmol (week 8). Further, the Amount excreted in urine, 0- 3 h (week 0, interval 0–3 h) stood at 0.12 ± 0.08 µmol and the Amount excreted in urine, 0- 3 h (week 8, interval 0–3 h) was determined as 0.08 ± 0.04 µmol. Also, the Amount excreted in urine, 3-6 h (week 0, interval 3–6 h) is 0.023 ± 0.004 µmol and the Amount excreted in urine, 3-6 h (week 8, interval 3–6 h) is 0.021 ± 0.008 µmol. Moreover, the Amount excreted in urine, 6-9 h stood at 0.027 ± 0.009 µmol (week 0, interval 6–9 h) and 0.03 ± 0.02 µmol (week 8, interval 6–9 h). In addition, the Amount excreted in urine, 9-11 h worked out at 0.013 ± 0.004 µmol (week 0, interval 9–11 h) and 0.008 ± 0.003 µmol (week 8, interval 9–11 h). The Amount excreted in urine, 11-24 h (week 0, interval 11–24 h) worked out at 0.1 ± 0.04 µmol and the Amount excreted in urine, 11-24 h (week 8, interval 11–24 h) amounted to 0.04 ± 0.02 µmol.
In the case of `O=C(O)/C=C/c1ccc(O)c(OS(=O)(=O)O)c1` [CA-3′-sulfate, 4′Hydroxycinnamic acid-3′-sulfate], the “Cumulative urinary excretion” value stood at 3.7 ± 0.5 µmol (week 0) and 4.4 ± 0.8 µmol (week 8). Besides, the Amount excreted in urine, 0- 3 h is, setting by setting: (week 0, interval 0–3 h) 1.2 ± 0.3 µmol; (week 8, interval 0–3 h) 1.2 ± 0.2 µmol. For the same molecule, the Amount excreted in urine, 3-6 h amounted to 0.7 ± 0.2 µmol (week 0, interval 3–6 h) and 0.6 ± 0.1 µmol (week 8, interval 3–6 h). For the same molecule, the Amount excreted in urine, 6-9 h came out at 0.8 ± 0.2 µmol (week 0, interval 6–9 h) and 0.9 ± 0.3 µmol (week 8, interval 6–9 h). The Amount excreted in urine, 9-11 h amounted to 0.21 ± 0.06 µmol (week 0, interval 9–11 h) and 0.7 ± 0.3 µmol (week 8, interval 9–11 h). The Amount excreted in urine, 11-24 h is 0.9 ± 0.2 µmol (week 0, interval 11–24 h) and 1 ± 0.3 µmol (week 8, interval 11–24 h).
For `O=C(O)CCc1ccc(O)c(O[C@@H]2O[C@H](C(=O)O)[C@@H](O)[C@H](O)[C@H]2O)c1` [DHCA-3′-glucuronide, 3-(4′-Hydroxyphenyl)propanoic acid-3′-glucuronide], the “Cumulative urinary excretion” value is, setting by setting: (week 0) 0.6 ± 0.2 µmol; (week 8) 0.5 ± 0.1 µmol. The Amount excreted in urine, 0- 3 h runs as follows: (week 0, interval 0–3 h) 0.09 ± 0.03 µmol; (week 8, interval 0–3 h) 0.11 ± 0.04 µmol. In addition, the Amount excreted in urine, 3-6 h turned out to be 0.07 ± 0.02 µmol (week 0, interval 3–6 h) and 0.06 ± 0.02 µmol (week 8, interval 3–6 h). Moreover, the Amount excreted in urine, 6-9 h stood at 0.08 ± 0.04 µmol (week 0, interval 6–9 h) and 0.08 ± 0.02 µmol (week 8, interval 6–9 h). Moreover, the Amount excreted in urine, 9-11 h (week 0, interval 9–11 h) was determined as 0.04 ± 0.02 µmol. Moreover, the Amount excreted in urine, 11-24 h was 0.3 ± 0.09 µmol (week 0, interval 11–24 h) and 0.2 ± 0.06 µmol (week 8, interval 11–24 h).
